One test has as its target T1, human NOX1 (hNOX1) (Homo sapiens, UniProt Q9Y5S8).
T1 construct: pLV-CMV-hNOX1-puro (NM_007052.5); host or cells: HEK293 (CLS GmbH), lentiviral transduction
T1 sequence (Q9Y5S8 1-564): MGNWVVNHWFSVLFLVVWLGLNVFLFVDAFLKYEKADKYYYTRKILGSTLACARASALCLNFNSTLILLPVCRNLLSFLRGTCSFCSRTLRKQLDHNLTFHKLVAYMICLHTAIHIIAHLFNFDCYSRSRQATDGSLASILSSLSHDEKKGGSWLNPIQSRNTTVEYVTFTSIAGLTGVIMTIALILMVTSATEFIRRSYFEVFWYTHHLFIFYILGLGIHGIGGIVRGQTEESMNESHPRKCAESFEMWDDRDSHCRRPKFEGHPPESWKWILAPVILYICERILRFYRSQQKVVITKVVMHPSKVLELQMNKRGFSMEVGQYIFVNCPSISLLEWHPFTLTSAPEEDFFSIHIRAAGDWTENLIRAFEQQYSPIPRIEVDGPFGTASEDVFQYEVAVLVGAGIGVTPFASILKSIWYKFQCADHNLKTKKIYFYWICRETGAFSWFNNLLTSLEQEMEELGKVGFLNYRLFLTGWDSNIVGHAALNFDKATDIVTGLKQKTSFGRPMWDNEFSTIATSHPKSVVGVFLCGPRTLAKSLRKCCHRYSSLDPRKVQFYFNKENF
T1 sequence (P13498 2-195 partner limits assumed): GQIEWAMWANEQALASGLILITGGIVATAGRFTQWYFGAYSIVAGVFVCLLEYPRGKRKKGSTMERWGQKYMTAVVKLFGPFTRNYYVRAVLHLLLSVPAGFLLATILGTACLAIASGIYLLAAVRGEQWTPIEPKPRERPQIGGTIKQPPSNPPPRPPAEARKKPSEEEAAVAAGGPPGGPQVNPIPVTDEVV
In words: NOX1 inhibition assay (L-012), HEK293 cells stably overexpressing human NOX1. It counts as cell-based. The settings on record: HEK293-hNOX1, PMA stimulated. An excerpt: Plasmids are Purchased from Vectorbuilder. • for HEK-hNOX1 all necessary subunits are cloned accordingly: • pLV-CMV-hNOX1-puro (NM_007052.5) • pLV-CMV-hNOXO1-blas (NM_172168.3) • pLV-CMV-hp22phox-hygro (NM_000101.4) • pLV-CMV-hNOXA1-neo (NM_006647.2) • for HEK-hNOX3 • pLV-CMV-hNOX3-puro (NM_015718.3)
3rd generation lentiviral particles are produced in HEK293 suspension cells by transient transfection of three helper and expression plasmids. Crucial lentivirus supernatants are harvested, clarified by filtration and concentrated by precipitation. Lentivirus titers are determined in transducing units in (TU/mL) by transduction of HT1080 cells and colony forming assay. Parental HEK293 cells, purchased from CLS GmbH, are transduced with replication-incompetent 3rd generation lentiviral particles (MOI 2) and expanded for at least 2 weeks before cryopreservation of tested lots. During cultivation, medium is changed three times per week and cells are sub-cultured at least once per week. Selection antibiotics are added according to the plasmids (1 μg/ml puromycin, 1.5 μg/ml blasticidin, 200 μg/ml G418 and 100 μg/ml hygromycin).
Evaluation of the NOX4 inhibitors on NOX1 activity is assessed in HEK293 cells stably overexpressing human NOX1 (hNOX1).
Lastly, 8-amino-5-chloro-2,3-dihydro-7-phenyl-pyrido[3,4-d]pyridazine-1,4-dione sodium salt (L-012, CAS 143556-24-5) is added at 400 μM to all wells, and cells are incubated in an incubator for an additional 3 h. Afterwards luminescence is measured with a SpectraMax Paradigm Microplate Reader.

Another test has as its target T2, human NOX5 (hNOX5) (Homo sapiens, UniProt Q96PH1).
T2 construct: expressed in transfected cells; host or cells: HEK293
T2 sequence (Q96PH1 1-765): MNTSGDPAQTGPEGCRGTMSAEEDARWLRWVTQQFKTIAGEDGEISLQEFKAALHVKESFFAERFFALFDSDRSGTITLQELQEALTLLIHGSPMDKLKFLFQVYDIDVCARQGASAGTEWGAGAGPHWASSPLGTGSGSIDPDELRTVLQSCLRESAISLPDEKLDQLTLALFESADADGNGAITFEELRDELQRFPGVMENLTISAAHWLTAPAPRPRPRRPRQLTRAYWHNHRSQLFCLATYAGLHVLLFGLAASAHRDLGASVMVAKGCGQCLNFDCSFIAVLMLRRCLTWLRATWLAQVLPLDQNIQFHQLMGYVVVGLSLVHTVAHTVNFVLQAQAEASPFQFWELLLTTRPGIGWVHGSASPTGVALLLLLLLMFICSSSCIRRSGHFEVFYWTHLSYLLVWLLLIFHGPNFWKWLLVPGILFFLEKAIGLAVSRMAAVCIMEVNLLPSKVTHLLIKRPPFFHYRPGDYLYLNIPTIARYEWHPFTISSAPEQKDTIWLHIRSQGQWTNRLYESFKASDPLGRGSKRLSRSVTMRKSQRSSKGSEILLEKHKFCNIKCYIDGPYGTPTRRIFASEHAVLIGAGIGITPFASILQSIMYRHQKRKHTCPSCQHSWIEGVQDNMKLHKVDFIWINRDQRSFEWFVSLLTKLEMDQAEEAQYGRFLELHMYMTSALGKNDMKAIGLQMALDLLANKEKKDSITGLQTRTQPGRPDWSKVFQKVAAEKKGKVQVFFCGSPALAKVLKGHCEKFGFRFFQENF
Briefly: NOX5 inhibition assay (L-012), HEK293 cells stably overexpressing human NOX5. It counts as cell-based. The settings on record: HEK293-hNOX5, PMA stimulated. Here is the method:
The synthetic gene hNOX5 (Accession: Q96PH1) is cloned into pcDNA3.1_Zeo. […] The final construct is verified by sequencing.
Evaluation of the NOX4 inhibitors on NOX5 activity is assessed in HEK293 cells stably overexpressing human NOX5 (hNOX5).
Cells are seeded in 384 well plates over-night. […] Cells are then stimulated with PMA at 0.1 μM to induce NOX5-dependent ROS production. […] Luminescence is measured with an PHERAstar multimode reader.

Regarding `Cc1cc(F)cc(C)c1CSc1nc2ncsc2c(=O)n1-c1ccc(O)nn1` [Example 63], the figures for the IC50 at human NOX1 (hNOX1) and against human NOX5 (hNOX5) were 43.4 µM and > 100 µM, respectively.

For the compound `O=c1c2scnc2nc(SCc2c(F)cc(F)cc2F)n1-c1cnc(O)cn1` [Example 69, 6-(5-Hydroxypyrazin-2-yl)-5-((2,4,6-trifluorobenzyl)thio)thiazolo[4,5-d]pyrimidin-7(6H)-one], the IC50 on human NOX1 (hNOX1) and against human NOX5 (hNOX5) was > 100 µM in each case. Take `Cc1cc(Cl)ccc1CSc1nc2ncsc2c(=O)n1-c1cnc(O)c(F)c1` [Example 37]: the results for the IC50 against human NOX1 (hNOX1) and against human NOX5 (hNOX5) were 18.8 µM and 64.5 µM, respectively.

Consider `O=c1c2scnc2nc(SCc2ccc(C(F)(F)F)cc2F)n1-c1ccc(O)nn1` [Example 65], for which the IC50 against human NOX1 (hNOX1) and at human NOX5 (hNOX5) was > 100 µM throughout. `Cc1cc(F)ccc1CSc1nc2ncsc2c(=O)n1-c1ccc(O)nc1` [Example 29]: the IC50 against human NOX1 (hNOX1) is 33.3 µM; at human NOX5 (hNOX5), > 100 µM. For `Cc1cc(F)cc(C)c1CSc1nc2ncsc2c(=O)n1-c1ccc(O)nc1` [Example 24] the same measures were 20.6 µM and > 100 µM. On to `O=c1c2scnc2nc(SCc2ccc(Cl)cc2F)n1-c1cc(F)c(O)c(F)c1` [Example 2, 5-((4-Chloro-2-fluorobenzyl)thio)-6-(3,5-difluoro-4-hydroxyphenyl)thiazolo[4,5-d]-pyrimidin-7(6H)-one], for which the IC50 against human NOX5 (hNOX5) was > 100 µM. As for `O=c1c2scnc2nc(SCc2c(F)cc(F)cc2F)n1-c1ccc(O)c(F)c1` [Example 11], the figures for the IC50 against human NOX1 (hNOX1) and at human NOX5 (hNOX5) were 0.9 µM and 13 µM, respectively. Take `O=c1c2scnc2nc(SCc2ccc(F)cc2F)n1-c1cnc(O)c(F)c1` [Example 38]: the IC50 against human NOX1 (hNOX1) and on human NOX5 (hNOX5) was > 100 µM each time. With `O=c1c2scnc2nc(SCc2ccc(Cl)cc2F)n1-c1ccc(O)nc1` [Example 22, 5-((4-Chloro-2-fluorobenzyl)thio)-6-(6-hydroxypyridin-3-yl)thiazolo[4,5-d]pyrimidin-7(6H)-one], the IC50 on human NOX1 (hNOX1) and against human NOX5 (hNOX5) was > 100 µM each time. Turning to `O=c1c2scnc2nc(SCc2c(F)cc(F)cc2F)n1-c1cc(F)c(O)cc1F` [Example 10, 6-(2,5-Difluoro-4-hydroxyphenyl)-5-((2,4,6-trifluorobenzyl)thio)thiazolo[4,5-d]pyrimidin-7(6H)-one], the figures for the IC50 at human NOX1 (hNOX1) and at human NOX5 (hNOX5) were 0.5 µM and 11.5 µM, respectively. For `O=c1c2scnc2nc(SCc2c(F)cc(F)cc2F)n1-c1ccc(O)nn1` [Example 67], the half-inhibitory concentration (IC50) against human NOX1 (hNOX1) and against human NOX5 (hNOX5) was > 100 µM in each case. `O=c1c2scnc2nc(SCc2ccc(C(F)(F)F)cc2F)n1-c1ccc(O)nc1` [Example 26]: the values for the IC50 on human NOX1 (hNOX1) and on human NOX5 (hNOX5) were 33 µM and 57.4 µM, respectively.

Consider `O=c1c2scnc2nc(SCc2ccc(Cl)cc2F)n1-c1cnc(O)nc1` [Example 53, 5-((4-Chloro-2-fluorobenzyl)thio)-6-(2-hydroxypyrimidin-5-yl)thiazolo[4,5-d]pyrimidin-7(6H)-one], for which the IC50 against human NOX1 (hNOX1) and at human NOX5 (hNOX5) was > 100 µM in each case. With `O=c1c2scnc2nc(SCc2c(F)cc(F)cc2F)n1-c1ccc(O)cc1Cl` [Example 17], the IC50 is 14.4 µM against human NOX1 (hNOX1) and 17.5 µM on human NOX5 (hNOX5). At human NOX5 (hNOX5), `Cc1cc(Cl)ccc1CSc1nc2ncsc2c(=O)n1-c1cnc(O)nc1` [Example 54] yielded an IC50 of 47.6 µM. Consider `O=c1c2scnc2nc(SCc2ccc(C(F)(F)F)cc2)n1-c1ccc(O)nc1` [Example 27], for which the IC50 at human NOX1 (hNOX1) came to 76 µM; on human NOX5 (hNOX5) it was 93.3 µM. On to `O=c1c2scnc2nc(SCc2c(F)cc(F)cc2F)n1-c1cc(F)c(O)cn1` [Example 20], for which the IC50 is 7 µM against human NOX1 (hNOX1) and 32.7 µM against human NOX5 (hNOX5). With `O=c1c2scnc2nc(SCc2c(F)cc(F)cc2F)n1-c1cc(F)c(O)c(F)c1` [Example 8], the figures for the IC50 on human NOX1 (hNOX1) and against human NOX5 (hNOX5) were 1.1 µM and > 100 µM, respectively. For `O=c1c2scnc2nc(SCc2ccc(Cl)cc2)n1-c1cnc(O)c(F)c1` [Example 33], the IC50 against human NOX1 (hNOX1) was 35.5 µM; against human NOX5 (hNOX5), > 100 µM.

For the compound `O=c1c2scnc2nc(SCc2ccc(C(F)(F)F)cc2F)n1-c1cc(F)c(O)c(F)c1` [Example 6], the IC50 against human NOX1 (hNOX1) and against human NOX5 (hNOX5) was > 100 µM in each case.

With `O=c1c2scnc2nc(SCc2c(F)cc(F)cc2F)n1-c1ccc(O)c(Cl)c1` [Example 16], the IC50 on human NOX1 (hNOX1) came to 15 µM; on human NOX5 (hNOX5) it was 36 µM. For `Cc1cc(F)cc(C)c1CSc1nc2ncsc2c(=O)n1-c1cnc(O)c(F)c1` [Example 43], the IC50 at human NOX1 (hNOX1) and against human NOX5 (hNOX5) was > 100 µM throughout. As to `O=c1c2scnc2nc(SCc2c(F)cc(F)cc2F)n1-c1ncc(O)cn1` [Example 21, 6-(5-Hydroxypyrimidin-2-yl)-5-((2,4,6-trifluorobenzyl)thio)thiazolo[4,5-d]pyrimidin-7(6H)-one], the IC50 at human NOX1 (hNOX1) and at human NOX5 (hNOX5) was > 100 µM in each case. Turning to `O=c1c2scnc2nc(SCc2ccc(F)cc2)n1-c1ccc(O)nc1` [Example 30], the IC50 is 37.8 µM against human NOX1 (hNOX1) and 94.8 µM at human NOX5 (hNOX5). In the case of `O=c1c2scnc2nc(SCc2ccc(Cl)cc2)n1-c1cnc(O)nc1` [Example 56], the IC50 at human NOX1 (hNOX1) is 2.7 µM; on human NOX5 (hNOX5), > 100 µM.

Take `O=c1c2scnc2nc(SCc2ccc(Cl)cc2)n1-c1ccc(O)nn1` [Example 64]: the IC50 on human NOX1 (hNOX1) and against human NOX5 (hNOX5) was > 100 µM throughout. For `O=c1c2scnc2nc(SCc2ccc(C(F)(F)F)cc2)n1-c1cnc(O)nc1` [Example 60], the 50% inhibitory concentration (IC50) at human NOX1 (hNOX1) and against human NOX5 (hNOX5) was > 100 µM each time. For `O=c1c2scnc2nc(SCc2c(F)cc(F)cc2F)n1-c1ccc(O)nc1` [Example 28], the IC50 is 27.1 µM against human NOX1 (hNOX1) and > 100 µM against human NOX5 (hNOX5). In the same order, the values of `O=c1c2scnc2nc(SCc2c(F)cc(F)cc2F)n1-c1cnc(O)nc1` [Example 59] are 21 µM and > 100 µM. Consider `O=c1c2scnc2nc(SCc2ccc(C(F)(F)F)cc2F)n1-c1cnc(O)nc1` [Example 57], for which the IC50 on human NOX5 (hNOX5) was > 100 µM. Turning to `O=c1c2scnc2nc(SCc2c(F)cc(F)cc2F)n1-c1ccc(O)c(F)c1F` [Example 12], it took 2.9 µM to reach half-maximal inhibition against human NOX1 (hNOX1) (IC50). For `Cc1cc(F)cc(C)c1CSc1nc2ncsc2c(=O)n1-c1cc(F)c(O)c(F)c1` [Example 4], the concentration for half-maximal inhibition (IC50) on human NOX5 (hNOX5) is > 100 µM.

What is called IC50 is the concentration at which inhibition is half-maximal. The low end stands for greater potency in that assay, the high end for weaker potency in that assay.

These data come from US20240327429A1, “[1,3]Thiazolo[4,5-d]-pyrimidon-7-ones as inhibitors of NOX4” (Boehringer Ingelheim International GmbH, priority 2023, published 2024).
